Measurements reported in patent publication US20240124456A1, “AZA-ERGOLINE DERIVATIVE AND PREPARATION METHOD THEREFOR AND APPLICATION THEREOF” (SHANGHAITECH UNIVERSITY, priority 2021, published 2024).

System: C57B6 male mice
Assay: Forced swimming experiment after 5 h restraint (depression-like behavior)
Assay type: in vivo
Conditions: restraint for five hours
Experimental: The experimental animals were C57B6 male mice, n=8 in each group. Firstly, the C57B6 mice were induced to develop depression-related behavioral representations by restraining the mice for 5 hours, and then the effects of the compounds on their “depression-like” behaviors were determined by tail suspension and forced swimming experiments. The specific experimental procedure was as follows. First, the mice were restrained using a mouse fixator for tail vein injection. During the restraint process, all behavioral abilities of the mice were restricted under the condition of ensuring minimal pain to the mice. The mice were administered intraperitoneally once before and after restraint, respectively. After the restraint, the mice returned to the cage to recover for 30 minutes. After the 30 minutes, the mice in different groups were subjected to tail suspension or forced swimming to detect their “depression-like” behavior, respectively.
Forced swimming experiment: the mouse was placed in a 5 L glass beaker filled with water, the water surface height was 15 cm, and the mouse needed to swim continuously in the beaker for 6 minutes. The first two minutes was the adaptation period and no data collection was performed. The time of the intermittent immobility behavior of the mouse was recorded in the next four minutes, and the immobility behavior of the mouse was defined as: the mouse float passively on the surface of the water without movement, with only small local movements required to maintain afloat. The duration of this immobility state was used to measure the degree of behavioral despair in the mouse. Data statistics were carried out using Student-t-test, p<0.05 was *, p<0.01 was **, p<0.001 was ***, p<0.0001 was ****. The results of statistical data of restrained and unrestrained mouse tail suspension experiment and forced swimming experiment are shown in Table 8.

## CN(C)C(=O)N[C@H]1CC[C@H](CCN2CCN3c4cccc5[nH]cc(c45)C[C@H]3C2)CC1 [(−)-I-10]
0.00625 mg/kg intraperitoneal
  Immobility time, forced swimming experiment: 76.09 s
0.025 mg/kg intraperitoneal
  Immobility time, forced swimming experiment: 56.59 s
0.1 mg/kg intraperitoneal
  Immobility time, forced swimming experiment: 42.76 s
0.4 mg/kg intraperitoneal
  Immobility time, forced swimming experiment: 22.40 s
